Tests used:
[1] = test system: PI3Kδ (M-CSF-stimulated THP-1 monocytes); experiment: M-CSF-induced Akt phosphorylation in THP-1 cells; format: cell-based; conditions: at 10 nM; M-CSF 50 ng/ml
Protocol: In fibroblasts, signals from the insulin-like growth factor 1 (IGF-1) receptor are mediated by PI3Kα, while lysophosphatidic acid (LPA) stimulates G-protein coupled receptor (GPCR) signals via PI3Kβ[26]. After being pre-incubated with X-370, murine embryonic fibroblasts cultured in serum-free medium were stimulated with IGF-1 or LPA. […] Either PI3Kδ or PI3Kγ can be activated in THP-1 monocytes dependent on the stimulating ligand, among which macrophage colony stimulating factor (M-CSF/CSF-1) activates RTK-coupled PI3Kδ, while monocyte chemoattractant protein-1 (MCP-1) activates PI3Kγ [24]. Accordingly, THP-1 cells cultured in serum-free medium were stimulated with MCP-1 or M-CSF in the presence of X-370 and phosphorylated Akt was measured.
Cell lysates were probed with indicated antibodies. The IC50 values were calculated based on relative band intensity measured with ImageQuant™ TL (GE Healthcare Life Sciences, Piscataway, NJ) (B). Data shown are mean values from three independent experiments. (C, D, E, F) X-370 blocked stimuli-triggered PI3Kδ activation. MEF cells and THP-1 were starved in serum-free medium for 12 h or 4 h respectively and X-370 were added for an additional 1 h treatment following stimulation of IGF-1 at 100 ng/ml for MEF cells (C), LPA at 10 μM for MEF cells (D), MCP-1 at 100ng/ml for THP-1 (E) and M-CSF at 50 ng/ml for THP-1 (F). […]

Raji-R cells = experiment: Signaling by Western blot in Raji-R cells; format: cell-based, human; conditions: 1 h
Protocol: Raji and SU-DHL-6 cells were treated with X-370 for 1 h (left panel) or treated with 0.5 μM X-370 for indicated times (middle panel). Right panel, Raji cells were incubated in fresh medium following treatment with 0.5 μM X-370 for 1 h. Indicated proteins were detected. (B) Raji-R (the rituximab-resistant derivatives of Raji cells) cells were resistant to X-370. The activity of X-370 on the proliferation of Raji parent and Raji-R cells was determined by CCK-8 assay as described in the methods section. (C) X-370 blocked phosphorylation of Akt but not Erk1/2 in Raji-R cells. Raji-R cells were treated with X-370 for 1h and indicated proteins were detected. Data shown are representative from three independent experiments.
Simultaneous targeting of PI3Kδ and a PI3Kδ-dependent MEK1/2-Erk1/2 pathway for therapy in pediatric B-cell acute lymphoblastic […]
Cells were treated as indicated conditions and then subjected to lysate to perform standard Western blot as described previously1. Briefly, whole-cell lysates and SDS-loading buffer diluted cell fractions were analyzed on SDS-PAGE gels. […]
Raji cells were treated with or without X-370 at 1 μM, 5μM and 10 μM for 24, 48 and 72 hours, thenwere measured using the Caspase-Glo® 3/7 Assay (Promega, US) following the protocol and relative caspase-3/7 activity was normalized to cell number which DMSO control was the base line. […]

O=C(N1CCCC1)N1CCC(n2cnc3c(-n4c(C(F)F)nc5ccccc54)nc(N4CCOCC4)nc32)CC1 [X-370]
M-CSF-induced Akt phosphorylation [1]: completely blocked
Akt and S6k1 phosphorylation (Raji-R cells): significantly inhibited
level of phosphorylated Erk1/2 (Raji-R cells): negligible activity

From paper PMC4279406, “Simultaneous targeting of PI3Kδ and a PI3Kδ-dependent MEK1/2-Erk1/2 pathway for therapy in pediatric B-cell acute lymphoblastic leukemia” (Oncotarget, 2014)
